“Also recorded” adds a separate entry of the source.
Experiments:
[1] = test system: phosphorylation state of MLKL in MCF7 cells; test: Western blot of phospho-MLKL (Ser358) in MCF7 cells, necroptosis induced by TNF-alpha and z-VAD-fmk; assay type: cell-based; details: then TNF a 10 ng/ml 20 hrs, z-VAD-fmk 10 μM, One-Way ANOVA
Experimental: (§1) MCF7 and HT29 cells were cultured in DMEM along with 10% FBS, 1% Penicillin-Streptomycin and 1% Glutamine. The cells were pre-treated with 0.1% DMSO or z-VAD-fmk (10 μM) to induce necroptosis (positive control). In order to evaluate the effect of candidate agents on the induced necroptosis, Necrostatin 1 (Nec-1 (10 μM)) or Estetrol (E4 (10^-7 M) was added to the cells for 1 hr and was further subjected to Tumor Necrosis Factor (TNF) a (10 ng/ml) treatment for 20 hrs. The cells were then washed, followed by isolation and quantification of the total protein. 20 μg of protein from each treatment group was used for SDS-PAGE separation (10% […] gel) and was then transferred to PVDF membrane via a transfer apparatus. Post transfer, the membranes were blocked with 5% milk and further washed with the wash buffer. The membranes were further incubated with anti-Phospho-MLKL (Ser358) Polyclonal Antibody; Cat No: PA5-105678 (Thermofisher Scientific) at a dilution of 1/1000. The membranes were then incubated with secondary antibody (anti-Rabbit IgG, HRP-linked antibody, Cell signaling, Cat No: 7074S) at a dilution of 1/1000 and visualized using Western Blot substrate (Western Lightning Plus-ECL, Perkin Elmer, NEL104001EA) as per manufacturer's protocols. The results are shown in FIGS. 6 and 7, respectively for MCF7 and HT29 cells.

[2] = test system: phosphorylation state of MLKL in HT29 cells; test: Western blot of phospho-MLKL (Ser358) in HT29 cells, necroptosis induced by TNF-alpha and z-VAD-fmk; assay type: cell-based; details: then TNF a 10 ng/ml 20 hrs, z-VAD-fmk 10 μM, One-Way ANOVA
Experimental: as §1

[3] = E4 10^-7 M for 1 hr, listed as E4
[4] = Nec-1 10 μM for 1 hr, listed as Nec 1
[5] = Nec-1 10 μM for 1 hr, listed as Necrostatin 1

| SMILES | reduction of MLKL phosphorylation versus TNF-alpha + z-VAD-fmk induced cells ([1]; E4 10^-7 M for 1 hr) | reduction of MLKL phosphorylation versus TNF-alpha + z-VAD-fmk induced cells [1, 3] | reduction of MLKL phosphorylation versus TNF-alpha + z-VAD-fmk induced cells ([2]; E4 10^-7 M for 1 hr) | reduction of MLKL phosphorylation versus TNF-alpha + z-VAD-fmk induced cells [2, 3] | reduction of MLKL phosphorylation versus TNF-alpha + z-VAD-fmk induced cells [1, 4] | reduction of MLKL phosphorylation versus TNF-alpha + z-VAD-fmk induced cells [1, 5] | reduction of MLKL phosphorylation versus TNF-alpha + z-VAD-fmk induced cells [2, 4] | reduction of MLKL phosphorylation versus TNF-alpha + z-VAD-fmk induced cells [2, 5] |
| --- | --- | --- | --- | --- | --- | --- | --- | --- |
| C[C@]12CC[C@@H]3c4ccc(O)cc4CC[C@H]3[C@@H]1[C@@H](O)[C@@H](O)[C@@H]2O [Estetrol] | decrease of phosphorylation of MLKL | statistically relevant (**p<0.01) | decrease of phosphorylation of MLKL | statistically relevant (**p<0.01) | – | – | – | – |
| CN1C(=O)C(Cc2c[nH]c3ccccc23)NC1=S (centres unmarked) [Nec-1, Necrostatin-1] | – | – | – | – | statistically significant (*p<0.05); also recorded: statistically relevant (*p<0.05) | decrease of phosphorylation of MLKL | statistically Non-Significant (NS) | decrease of phosphorylation of MLKL |

From patent US20230056994A1, “NECROPTOSIS MODULATORS, SCREENING METHODS AND PHARMACEUTICAL COMPOSITIONS” (NEURALIS SA, priority 2019, published 2023)
